Where a name gives a salt, the structure may show the parent alone. One block for each molecule: values may come before it. Active and inactive are the calls of the source.
How the values were obtained:
[1] = target: G-protein coupled receptor 55 (Homo sapiens, UniProt Q9Y2T6); experiment: selective activators of receptor GPR55 – imaging, U2OS cells, beta-arrestin-GFP redistribution, primary screen (AID 1961); type: functional
[2] = target: T1, Protein skinhead-1 (Caenorhabditis elegans, UniProt P34707); type: functional
T1 sequence (P34707 whole entry): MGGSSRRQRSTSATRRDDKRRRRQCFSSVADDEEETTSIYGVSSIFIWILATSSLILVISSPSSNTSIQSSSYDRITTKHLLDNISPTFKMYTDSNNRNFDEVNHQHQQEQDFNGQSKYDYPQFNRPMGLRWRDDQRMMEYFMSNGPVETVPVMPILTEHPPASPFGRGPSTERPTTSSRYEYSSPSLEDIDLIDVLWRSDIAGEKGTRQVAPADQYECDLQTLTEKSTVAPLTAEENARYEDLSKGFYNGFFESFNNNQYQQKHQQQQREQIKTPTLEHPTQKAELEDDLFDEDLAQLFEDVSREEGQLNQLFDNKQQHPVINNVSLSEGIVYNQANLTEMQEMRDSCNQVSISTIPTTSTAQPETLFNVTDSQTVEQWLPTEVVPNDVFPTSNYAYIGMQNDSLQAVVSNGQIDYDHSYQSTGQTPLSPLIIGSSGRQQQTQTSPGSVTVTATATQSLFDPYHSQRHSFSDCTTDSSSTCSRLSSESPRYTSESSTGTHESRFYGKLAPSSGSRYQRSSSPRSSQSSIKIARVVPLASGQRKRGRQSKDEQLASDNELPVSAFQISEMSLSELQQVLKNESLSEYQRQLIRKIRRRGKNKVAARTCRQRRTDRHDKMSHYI

[3] = target: T2, Oxysterols receptor LXR-beta (Homo sapiens, UniProt P55055); type: functional, cell-based;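 note: agonist activity at LXR measured by a cell-based luminescence readout across a dose range, run as a counterscreen for daf-12 agonists; potency for activation of Gal4-LXR reporter so compounds are agonists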
T2 sequence (P55055 whole entry): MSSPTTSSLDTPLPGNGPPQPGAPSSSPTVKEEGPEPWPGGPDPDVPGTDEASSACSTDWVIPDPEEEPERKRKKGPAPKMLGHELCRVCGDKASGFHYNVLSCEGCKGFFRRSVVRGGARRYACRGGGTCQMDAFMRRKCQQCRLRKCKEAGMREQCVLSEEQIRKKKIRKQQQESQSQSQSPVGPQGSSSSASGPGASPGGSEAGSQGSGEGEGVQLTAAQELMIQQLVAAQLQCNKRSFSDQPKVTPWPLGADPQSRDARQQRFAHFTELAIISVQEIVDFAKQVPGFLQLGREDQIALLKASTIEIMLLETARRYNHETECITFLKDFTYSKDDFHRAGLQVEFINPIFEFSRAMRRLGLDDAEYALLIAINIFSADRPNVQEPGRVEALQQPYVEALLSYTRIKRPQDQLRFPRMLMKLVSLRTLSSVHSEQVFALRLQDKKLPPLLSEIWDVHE

[4] = target: T2, Oxysterols receptor LXR-beta; experiment: LXR agonists, Gal4 luciferase reporter, dose response, counter-screen for ssDAF-12 agonist project, cell-based, luminescence, HEK293, S. stercoralis campaign (AID 720737); type: functional; settings: read-out: IC50 (the source's name)
[5] = Luminescence-based cell-based high throughput dose response assay to identify activators of the DAF-12 from the parasite S. stercoralis (ssDAF-12).; type: functional
[6] = target: E3 ubiquitin-protein ligase Mdm2 (Homo sapiens, UniProt Q00987); experiment: MDM2-luc reporter signal enhancers, multi-concentration potency testing, MDM2 ubiquitin-protein ligase inhibitor program, whole-cell format, luminescence detection, 384-well microplate (AID 1394); type: functional;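 note: MDM2 E3 inhibitors raise luminescence so EC50 is for signal enhancement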
[7] = P. falciparum Dd2 growth inhibitors, dose response, SYBR Green, cherry-picked samples (AID 1159567); type: functional, cell-based
[8] = toxicity to human hepatoma HepG2 cells – cell-based, cherry-picked samples, cytotoxicity control, dose response (AID 1159577); type: functional
[9] = target: Muscarinic acetylcholine receptor M1 (Rattus norvegicus, UniProt P08482); experiment: concentration-dependent potentiation of ACh at M1 – cell-based, calcium mobilization, CHO-K1, ACh EC20, dose response (AID 2425); type: functional
[10] = target: Ephrin type-A receptor 4 (Mus musculus, UniProt Q03137); experiment: EphA4 ligand-binding antagonists – biochemical, colorimetric, mouse EphA4, primary screen (AID 689); type: functional
[11] = target: T3, Low molecular weight phosphotyrosine protein phosphatase (Homo sapiens, UniProt P24666); experiment: inhibition of human LMPTP enzyme activity – biochemical, absorbance, pNPP substrate, LMPTP-A isoform, set 2, orthogonal assay, dose response (AID 743308); type: functional
T3 sequence (P24666 whole entry): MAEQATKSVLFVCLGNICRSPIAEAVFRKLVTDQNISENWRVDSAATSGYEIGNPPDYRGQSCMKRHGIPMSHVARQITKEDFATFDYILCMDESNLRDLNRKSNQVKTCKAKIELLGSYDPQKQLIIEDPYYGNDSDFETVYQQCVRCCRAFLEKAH

[12] = target: T3, Low molecular weight phosphotyrosine protein phosphatase; experiment: inhibition of LMPTP-A enzymatic activity – biochemical, OMFP substrate, fluorescence intensity, set 2, dose response (AID 743307); type: functional
[13] = target: Ubiquitin carboxyl-terminal hydrolase BAP1 (Homo sapiens, UniProt Q92560); experiment: inhibition of BAP1 ubiquitin hydrolase activity – biochemical, dose response (AID 714); type: functional
[14] = target: Voltage-gated inwardly rectifying potassium channel KCNH2 (Homo sapiens, UniProt Q12809); experiment: concentration-dependent hERG rescue from blockers – cell-based, thallium flux, dose response (AID 2121); type: ADME
[15] = viability of uninfected HEp-2 cells – cell-based, HTS, cytotoxicity control for RSV inhibitor project, dose response (AID 2410); type: functional; settings: human respiratory syncytial virus
[16] = IC50 of insulin release inhibition, rat insulinoma INS-1E line, 5 mM glucose, cell-based (AID 1117331); type: functional
[17] = cells; type: functional, cell-based; settings: INS-1E
[18] = target: Heat shock protein HSP 90-alpha (Homo sapiens, UniProt P07900); experiment: Luminescence-based dose response biochemical high throughput screening assay for inhibitors of the Heat Shock Protein 90 (HSP90). [Related pubchem assays: 1831 (Summary AID.), 1846 (Confirmation screen.), 1789 (Primary screen.)]
[19] = viability loss in Vero cells – cytotoxicity control for Vif-APOBEC3G degradation inhibitor project, dose response (AID 1117358); type: functional; settings: Vero
[20] = target: T4, Corticotropin-releasing factor receptor 2/Corticotropin-releasing factor-binding protein (Homo sapiens, UniProt P24387+Q13324); experiment: activators of CRF receptor 2 with binding protein – uHTS hits, confirmation (AID 602473); type: functional; settings: read-out: EC50_Mean
T4 sequence (Q13324 whole entry): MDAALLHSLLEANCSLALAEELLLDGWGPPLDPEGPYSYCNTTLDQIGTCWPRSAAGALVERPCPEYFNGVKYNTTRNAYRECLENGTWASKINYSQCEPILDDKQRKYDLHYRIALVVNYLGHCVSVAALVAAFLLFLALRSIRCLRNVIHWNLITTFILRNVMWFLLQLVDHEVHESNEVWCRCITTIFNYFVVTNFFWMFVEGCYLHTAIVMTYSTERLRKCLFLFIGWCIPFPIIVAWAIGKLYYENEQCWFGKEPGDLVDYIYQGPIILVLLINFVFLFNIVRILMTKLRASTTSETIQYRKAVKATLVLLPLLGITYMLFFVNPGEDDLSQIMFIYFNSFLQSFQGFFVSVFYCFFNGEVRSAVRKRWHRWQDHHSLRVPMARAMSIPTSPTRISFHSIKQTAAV
T4 sequence (P24387 whole entry): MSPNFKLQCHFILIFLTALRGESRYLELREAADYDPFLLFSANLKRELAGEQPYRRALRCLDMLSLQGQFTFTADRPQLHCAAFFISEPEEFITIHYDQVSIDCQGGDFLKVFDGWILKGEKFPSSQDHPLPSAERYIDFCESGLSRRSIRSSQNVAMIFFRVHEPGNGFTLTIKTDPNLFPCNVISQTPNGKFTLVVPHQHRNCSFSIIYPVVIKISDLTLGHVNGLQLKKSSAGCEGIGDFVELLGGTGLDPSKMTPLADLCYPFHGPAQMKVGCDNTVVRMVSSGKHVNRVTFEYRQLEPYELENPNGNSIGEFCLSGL

[21] = target: T4, Corticotropin-releasing factor receptor 2/Corticotropin-releasing factor-binding protein; experiment: Dose Response confirmation of uHTS hits for small molecule antagonists of the CRF-binding protein and CRF-R2 receptor complex.; type: functional; settings: read-out: IC50_Mean
[22] = HIV-1 Vif–A3G interaction blockers – biochemical, TR-FRET, GST-Vif 1-94, biotin-A3G peptide, dose response retest, primary screen (AID 1117319); type: functional;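 note: TR-FRET signal of purified GST-Vif binding a biotinylated A3G peptide; inhibitors lower the FRET signal by blocking Vif and A3G binding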
[23] = viability loss in human Jurkat cells – cell-based, luminescence, cytotoxicity control for P. falciparum gametocyte viability project, dose response (AID 1117277); type: functional;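 note: potency reflects loss of cellular ATP meaning fewer viable cells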
[24] = target: T5, Heat shock factor protein 1 (Mus musculus, UniProt P38532); experiment: enhancement of HSF1-driven luciferase signal – cell-based, NIH3T3, luminescence, dose retest, confirmation (AID 435004); type: functional;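 note: stress induced by proteasome inhibitor MG132 added 30 min after compound; luciferase reporter driven by HSF1 response element in NIH3T3 cells; actives raise luminescence as potentiators of the MG132 stress response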
T5 sequence (P38532 whole entry): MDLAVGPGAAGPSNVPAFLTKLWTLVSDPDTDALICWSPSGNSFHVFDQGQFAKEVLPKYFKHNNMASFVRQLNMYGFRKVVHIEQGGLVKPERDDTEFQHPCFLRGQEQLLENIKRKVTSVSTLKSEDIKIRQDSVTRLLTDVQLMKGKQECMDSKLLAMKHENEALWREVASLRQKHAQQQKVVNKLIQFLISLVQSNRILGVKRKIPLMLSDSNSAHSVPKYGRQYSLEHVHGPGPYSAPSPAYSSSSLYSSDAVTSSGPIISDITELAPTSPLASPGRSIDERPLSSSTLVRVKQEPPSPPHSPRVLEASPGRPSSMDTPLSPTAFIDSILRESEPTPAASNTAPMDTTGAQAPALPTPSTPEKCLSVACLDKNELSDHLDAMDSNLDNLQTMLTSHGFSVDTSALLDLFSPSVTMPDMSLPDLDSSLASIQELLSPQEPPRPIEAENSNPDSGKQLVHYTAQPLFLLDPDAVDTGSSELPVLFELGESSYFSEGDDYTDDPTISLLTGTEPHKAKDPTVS

[25] = viability inhibitors of stage V gametocytes – luminescence, dose response (AID 1117278); type: functional, cell-based;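 note: gametocytes exposed to compound for 24 hours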
[26] = target: T6, Fatty acid synthase (Homo sapiens, UniProt P49327); experiment: inhibition of human FAS-TE enzyme activity – biochemical, kinetic fluorescence intensity, dose response (AID 624326); type: functional;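 note: rate of fluorescence rise from hydrolysis of a fluorogenic O-methyl fluorescein ester substrate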
[27] = target: T6, Fatty acid synthase; experiment: inhibition of human FAS-TE enzyme activity – biochemical, endpoint fluorescence intensity, uHTS hits, dose response (AID 624327); type: functional;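 note: fluorescence from hydrolysis of an O-methyl fluorescein acyl ester substrate by the enzyme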

T6 sequence (P49327 whole entry): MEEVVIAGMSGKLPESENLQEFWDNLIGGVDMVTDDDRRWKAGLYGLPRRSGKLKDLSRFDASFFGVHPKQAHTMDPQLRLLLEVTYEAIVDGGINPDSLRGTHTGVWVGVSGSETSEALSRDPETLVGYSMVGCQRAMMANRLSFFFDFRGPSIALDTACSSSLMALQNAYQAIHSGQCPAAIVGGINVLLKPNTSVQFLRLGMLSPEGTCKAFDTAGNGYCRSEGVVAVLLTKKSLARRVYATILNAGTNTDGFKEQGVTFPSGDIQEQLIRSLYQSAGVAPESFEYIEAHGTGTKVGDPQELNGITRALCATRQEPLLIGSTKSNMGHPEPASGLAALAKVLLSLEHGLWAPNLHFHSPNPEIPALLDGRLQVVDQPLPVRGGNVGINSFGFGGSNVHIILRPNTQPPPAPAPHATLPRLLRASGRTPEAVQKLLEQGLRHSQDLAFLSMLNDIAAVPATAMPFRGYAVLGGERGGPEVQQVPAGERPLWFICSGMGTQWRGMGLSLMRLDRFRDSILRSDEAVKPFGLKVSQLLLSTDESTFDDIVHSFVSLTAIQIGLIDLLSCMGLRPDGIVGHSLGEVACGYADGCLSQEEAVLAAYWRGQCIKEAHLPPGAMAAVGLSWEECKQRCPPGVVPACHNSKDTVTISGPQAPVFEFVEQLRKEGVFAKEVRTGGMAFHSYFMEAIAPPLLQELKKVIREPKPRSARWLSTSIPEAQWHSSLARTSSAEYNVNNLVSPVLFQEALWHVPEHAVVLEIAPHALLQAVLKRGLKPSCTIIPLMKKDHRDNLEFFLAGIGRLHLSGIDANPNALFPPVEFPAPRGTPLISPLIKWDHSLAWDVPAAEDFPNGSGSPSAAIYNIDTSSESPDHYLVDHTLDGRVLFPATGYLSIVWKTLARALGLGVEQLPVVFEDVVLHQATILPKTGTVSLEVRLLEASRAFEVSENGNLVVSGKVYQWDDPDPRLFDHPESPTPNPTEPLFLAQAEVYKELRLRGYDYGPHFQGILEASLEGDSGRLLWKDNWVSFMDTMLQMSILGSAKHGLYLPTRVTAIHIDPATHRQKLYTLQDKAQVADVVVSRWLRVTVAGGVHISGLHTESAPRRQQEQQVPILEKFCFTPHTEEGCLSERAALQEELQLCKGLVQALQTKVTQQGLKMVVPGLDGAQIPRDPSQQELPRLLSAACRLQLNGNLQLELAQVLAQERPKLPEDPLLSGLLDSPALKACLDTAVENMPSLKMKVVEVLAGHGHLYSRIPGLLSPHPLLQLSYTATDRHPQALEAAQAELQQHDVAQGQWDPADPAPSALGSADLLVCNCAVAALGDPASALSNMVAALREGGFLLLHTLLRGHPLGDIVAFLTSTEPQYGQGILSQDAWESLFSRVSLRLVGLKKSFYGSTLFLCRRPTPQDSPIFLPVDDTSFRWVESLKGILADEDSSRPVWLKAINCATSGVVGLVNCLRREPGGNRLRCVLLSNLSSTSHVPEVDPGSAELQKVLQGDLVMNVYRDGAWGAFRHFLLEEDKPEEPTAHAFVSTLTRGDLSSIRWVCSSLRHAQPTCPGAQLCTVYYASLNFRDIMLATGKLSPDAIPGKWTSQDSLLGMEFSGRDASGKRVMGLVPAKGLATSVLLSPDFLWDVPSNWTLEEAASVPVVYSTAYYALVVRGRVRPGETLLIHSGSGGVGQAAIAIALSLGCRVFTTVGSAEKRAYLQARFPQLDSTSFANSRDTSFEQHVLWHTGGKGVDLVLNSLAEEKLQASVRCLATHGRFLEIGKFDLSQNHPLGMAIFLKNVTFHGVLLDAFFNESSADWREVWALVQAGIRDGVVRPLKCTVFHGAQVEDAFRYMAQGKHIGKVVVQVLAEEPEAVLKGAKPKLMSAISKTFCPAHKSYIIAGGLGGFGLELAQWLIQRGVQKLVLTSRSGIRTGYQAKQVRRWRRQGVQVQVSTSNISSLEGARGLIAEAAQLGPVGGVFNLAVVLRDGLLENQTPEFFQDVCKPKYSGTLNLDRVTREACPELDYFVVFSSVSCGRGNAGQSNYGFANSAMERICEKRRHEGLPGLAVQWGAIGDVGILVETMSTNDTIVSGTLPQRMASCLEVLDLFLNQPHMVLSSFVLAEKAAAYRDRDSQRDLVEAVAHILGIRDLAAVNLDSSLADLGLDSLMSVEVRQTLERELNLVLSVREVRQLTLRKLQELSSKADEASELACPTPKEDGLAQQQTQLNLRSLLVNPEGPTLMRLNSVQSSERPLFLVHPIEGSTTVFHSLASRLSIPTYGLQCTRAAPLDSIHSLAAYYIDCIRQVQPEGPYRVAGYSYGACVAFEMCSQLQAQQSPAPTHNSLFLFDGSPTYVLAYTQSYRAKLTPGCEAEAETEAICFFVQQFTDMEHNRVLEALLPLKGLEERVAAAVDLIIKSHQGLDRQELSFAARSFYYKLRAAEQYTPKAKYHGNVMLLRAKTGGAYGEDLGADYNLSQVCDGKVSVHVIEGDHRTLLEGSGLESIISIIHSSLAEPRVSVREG
Sequence of Ubiquitin carboxyl-terminal hydrolase BAP1 (Q92560 whole entry): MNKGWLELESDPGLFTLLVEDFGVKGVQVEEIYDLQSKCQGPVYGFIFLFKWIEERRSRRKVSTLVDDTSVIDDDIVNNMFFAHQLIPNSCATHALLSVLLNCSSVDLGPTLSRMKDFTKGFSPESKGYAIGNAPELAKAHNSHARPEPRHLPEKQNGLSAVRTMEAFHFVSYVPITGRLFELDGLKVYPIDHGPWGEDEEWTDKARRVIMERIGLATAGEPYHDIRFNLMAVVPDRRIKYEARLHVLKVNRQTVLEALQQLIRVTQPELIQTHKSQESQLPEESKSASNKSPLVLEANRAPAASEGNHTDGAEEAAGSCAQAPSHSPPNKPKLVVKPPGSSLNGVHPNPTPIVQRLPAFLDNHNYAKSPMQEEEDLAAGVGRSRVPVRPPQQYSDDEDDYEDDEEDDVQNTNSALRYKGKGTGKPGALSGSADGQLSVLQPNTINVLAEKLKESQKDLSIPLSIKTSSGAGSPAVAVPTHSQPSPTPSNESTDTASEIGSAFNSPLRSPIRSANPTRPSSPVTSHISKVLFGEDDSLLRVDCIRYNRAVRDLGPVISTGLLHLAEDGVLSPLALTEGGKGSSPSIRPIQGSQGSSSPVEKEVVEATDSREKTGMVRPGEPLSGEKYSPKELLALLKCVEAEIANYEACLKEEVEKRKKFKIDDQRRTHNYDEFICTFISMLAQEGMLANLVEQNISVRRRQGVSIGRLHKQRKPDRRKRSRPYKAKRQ
Sequence of G-protein coupled receptor 55 (Q9Y2T6 whole entry): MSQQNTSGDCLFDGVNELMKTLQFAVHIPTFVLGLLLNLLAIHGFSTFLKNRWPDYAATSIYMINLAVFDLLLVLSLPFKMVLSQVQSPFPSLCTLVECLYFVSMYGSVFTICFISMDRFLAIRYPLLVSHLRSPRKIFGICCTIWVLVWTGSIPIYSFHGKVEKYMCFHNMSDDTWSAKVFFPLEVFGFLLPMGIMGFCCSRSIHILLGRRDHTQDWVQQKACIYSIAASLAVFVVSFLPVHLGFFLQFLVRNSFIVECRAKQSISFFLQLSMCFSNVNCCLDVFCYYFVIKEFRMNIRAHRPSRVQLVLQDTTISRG
Sequence of Ephrin type-A receptor 4 (Q03137 whole entry, canonical isoform): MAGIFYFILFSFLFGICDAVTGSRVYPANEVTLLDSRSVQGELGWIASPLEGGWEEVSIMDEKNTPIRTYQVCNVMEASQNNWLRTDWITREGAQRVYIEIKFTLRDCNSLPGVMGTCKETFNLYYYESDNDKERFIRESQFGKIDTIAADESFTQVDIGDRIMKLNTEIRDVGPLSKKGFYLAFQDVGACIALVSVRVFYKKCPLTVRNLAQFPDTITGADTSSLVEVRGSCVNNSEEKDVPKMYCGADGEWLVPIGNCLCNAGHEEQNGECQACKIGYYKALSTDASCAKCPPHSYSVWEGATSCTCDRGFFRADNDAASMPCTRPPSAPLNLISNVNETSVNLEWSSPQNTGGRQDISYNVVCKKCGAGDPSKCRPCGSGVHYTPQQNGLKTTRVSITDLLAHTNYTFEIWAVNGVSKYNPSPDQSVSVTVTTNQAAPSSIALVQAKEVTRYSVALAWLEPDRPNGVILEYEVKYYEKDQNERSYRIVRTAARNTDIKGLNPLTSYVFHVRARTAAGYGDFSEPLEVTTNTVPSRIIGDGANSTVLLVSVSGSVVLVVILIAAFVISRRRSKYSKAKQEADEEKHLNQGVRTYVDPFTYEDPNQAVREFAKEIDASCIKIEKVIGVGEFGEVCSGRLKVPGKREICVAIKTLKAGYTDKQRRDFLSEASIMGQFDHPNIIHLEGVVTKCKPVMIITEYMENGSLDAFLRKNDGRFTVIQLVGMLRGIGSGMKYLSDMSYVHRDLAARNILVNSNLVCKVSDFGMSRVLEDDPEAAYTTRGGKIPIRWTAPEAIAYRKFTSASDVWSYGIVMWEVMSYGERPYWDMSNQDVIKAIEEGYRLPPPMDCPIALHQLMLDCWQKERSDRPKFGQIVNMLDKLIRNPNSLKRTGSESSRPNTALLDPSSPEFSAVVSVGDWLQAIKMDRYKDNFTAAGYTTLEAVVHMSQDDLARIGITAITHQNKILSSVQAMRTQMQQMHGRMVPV
Sequence of E3 ubiquitin-protein ligase Mdm2 (Q00987 whole entry): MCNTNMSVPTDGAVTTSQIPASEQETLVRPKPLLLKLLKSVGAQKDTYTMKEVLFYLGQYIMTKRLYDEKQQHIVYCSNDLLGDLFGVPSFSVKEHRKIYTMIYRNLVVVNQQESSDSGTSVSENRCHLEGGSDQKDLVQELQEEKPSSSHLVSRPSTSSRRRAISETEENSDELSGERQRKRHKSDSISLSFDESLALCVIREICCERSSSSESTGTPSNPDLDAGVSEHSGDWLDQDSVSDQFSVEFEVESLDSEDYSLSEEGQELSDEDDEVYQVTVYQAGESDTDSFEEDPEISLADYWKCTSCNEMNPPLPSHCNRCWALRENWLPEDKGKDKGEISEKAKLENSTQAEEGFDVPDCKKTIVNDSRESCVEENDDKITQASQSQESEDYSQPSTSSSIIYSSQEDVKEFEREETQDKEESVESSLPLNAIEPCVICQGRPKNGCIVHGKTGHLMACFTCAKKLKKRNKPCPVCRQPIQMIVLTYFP

Compound: N=C(NOC(=O)c1cc(Br)ccc1Cl)c1ccccn1
EC50 [1]: 31.4 µM (inactive)
IC50 [2]: 41.8 µM (active)
EC50 [3]: > 67.5 µM (inactive)
EC50 [4]: > 67.5 µM (inactive)
IC50 [5]: > 67.5 µM (inactive)

Compound: OC[C@H]1Nc2ccc(-c3cccc(F)c3)cc2[C@@H]2[C@H]1CCN2Cc1ccc(F)cc1
AC50 [7]: 4.27 µM (active)
AC50 [8]: > 39 µM (inactive)

Compound: Sc1ncnc2c1sc1nc(-c3ccccc3)c3c(c12)CCCC3
EC50 [14]: 1.69 µM (active)
CC50 [15]: 16.9 µM (active)

Compound: CN(C)CCC[C@@]1(c2ccc(F)cc2)OCc2cc(C#N)ccc21 [ESCITALOPRAM OXALATE]
IC50 [16]: 5.45 µM (inactive)
IC50 [17]: > 33.3 µM (inactive)

Compound: O=C1CSC(c2nn(-c3ccccc3)cc2-c2cc3ccccc3oc2=O)N1Cc1ccco1 (configuration not stated)
CC50 [19]: > 40 µM (active)
EC50 [20]: > 53 µM (inactive)
IC50 [21]: 19.2 µM (active)

Compound: CCc1ccccc1NC(=O)CC(O)(C(=O)OC)C(F)(F)F (configuration not stated)
IC50 [22]: > 100 µM (active)

Compound: Cc1cc2c(cc1C)C(c1cccc([N+](=O)[O-])c1)CC(=O)N2 (configuration not stated)
IC50 [23]: > 83.2 µM (inactive)
EC50 [24]: > 260 µM (inactive)
IC50 [25]: > 109 µM (inactive)
IC50 [26]: 7.33 µM (active)
IC50 [27]: 5.61 µM (active)

Second part, the molecule after the results:

EC50 [6]: 3.98 µM (not active)
Compound: Cn1cc/c(=N\C=C(C#N)C#N)c2ccccc21

EC50 [9]: 3.45 µM (active)
Compound: Cc1cc(NC(=O)CS(=O)(=O)c2cn(Cc3cccc(-c4ccn(C)n4)c3)c3ccccc23)no1

IC50 [10]: > 100 µM (not active)
Compound: CCOC(=O)N1CCN(C(=O)CSc2nnc(-c3c[nH]c4ccccc34)n2CCOC)CC1

IC50 [11]: > 80 µM (inactive)
IC50 [12]: > 80 µM (inactive)
Compound: Brc1ccc2nc(-c3ccccc3)cc(NCCCN3CCCCC3)c2c1

IC50 [13]: > 50 µM (not active)
Compound: Cc1sc(NC(=O)CSc2nnc(COc3ccc(Cl)cc3)n2C)c(C#N)c1C

IC50 [18]: 6.25 µM (active)
Compound: CN(C)c1ccc(C2Nc3cccc4cccc(c34)N2)cc1

Reference: ChEMBL document CHEMBL1201862, “PubChem BioAssay data set” (2004)
